The nature of data set [1]: Determination of the 50% lethal dose (LD50) in mice. As to conditions: mouse, in vivo. The method, then:
A. Determination of the 50% lethal dose (LD50) in mice
The derivatives studied were administered intraperitoneally and orally to groups made up of five male mice and five female mice, at a rate of 0.1 ml per ten grams of body weight.

Data set [2] deals with pain syndrome caused by phenylbenzoquinone (PBQ). The data set is described as follows: Peripheral analgesic activity (phenylbenzoquinone-induced abdominal twisting). As to conditions: Mus musculus, ip. Format: in vivo. The method, then:
F--Peripheral analgesic activity
A peritoneal pain is caused in mice by the intraperitoneal injection of phenylbenzoquinone (PBQ). The test assesses the decrease in the pain syndrome, characterized by an abdominal twisting movement, which is caused by injecting the test product thirty minutes before the administration of PBQ.
The 50% effective dose is calculated from the percentage decrease in the pain syndrome relative to the control animals.

The test system of data set [3] is contractions induced by histamine hydrochloride in isolated guinea-pig ileum. The data set is described as follows: Study on an isolated organ (guinea-pig ileum), antagonism of histamine contractions. The settings on record: 35° C., Tyrode's solution. The method, then: I--Study on an isolated organ (guinea-pig ileum)
This test assesses antagonism towards the contractions induced by histamine hydrochloride in isolated guinea-pig ileum kept at 35° C. in Tyrode's solution.

Data set [4] deals with histamine-induced bronchospasm. The data set is described as follows: Bronchospasm by inhalation of a histamine solution. It is filed as in vivo. As to conditions: Cavia porcellus, guinea-pig. The method, then:
J--Bronchospasm by inhalation of a histamine solution
Guinea-pigs are placed in a closed chamber into which histamine is introduced as an aerosol, and only those which show very distinct signs of asphyxia within four minutes are selected.
The substance to be studied is administered to groups of guinea-pigs thirty minutes before a further period in the chamber in order to check the resistance to histamine. A guinea-pig is considered to be protected if it resists the histamine aerosol for ten minutes without showing signs of asphyxia.
A 50% effective dose is calculated from the results obtained.

The test system of data set [5] is lethal dose of histamine (histaminic shock). The experiment in a line: Antihistaminic activity (protection from a lethal dose of histamine, histaminic shock). Format: in vivo. The settings on record: Cavia porcellus, po; guinea-pig, p.o. by position of the head; histamine 1 mg/kg i.v. The method, then:
K--Antihistaminic activity
This test assesses the dose which protects fifty per cent of guinea-pigs from a lethal dose of histamine.
The product is administered thirty minutes before the intravenous injection of histamine hydrochloride (1 mg/kg).
The 50% effective dose is calculated from the results obtained.

Data set [6] deals with rats. The experiment in a line: Determination of the minimal lethal dose (MLD) in rats. As to conditions: male rats, doses 75 and 150 mg/kg. It is filed as in vivo, rat. The method, then:
B. Determination of the minimal lethal dose (MLD) in rats
The derivatives studied were administered intraperitoneally to two groups made up of 5 male rats.
The following doses were used: 75 and 150 mg/kg.

The subject of data set [7] is anaphylactic shock. The experiment in a line: Test for assessing the dose which protects 50% of guinea-pigs from anaphylactic shock. It is filed as in vivo. As to conditions: Cavia porcellus, po; guinea-pig, p.o., 45 min before horse serum i.v.; read-out: ED50 protecting 50% of guinea-pigs from anaphylactic shock. The method, then:
L--Test for assessing the dose which protects 50% of guinea-pigs from anaphylactic shock
This test was carried out according to the following protocol:
Intraperitoneal administration to guinea-pigs of 2 ml of 20% horse serum in physiological solution for three days: D1, D3 and D5.
Trigger action: on D15, oral administration of the test product 45 minutes before the intravenous injection of 0.5 ml of pure horse serum.

Data set [8] deals with motor activity of mice. The experiment in a line: Study of the spontaneous motility (motor activity, photoelectric actimeter). It is filed as in vivo, mouse. As to conditions: i.p., comparative test, the number is the dose of the effect. The method, then: A--Study of the spontaneous motility
The motor activity of mice was determined with the aid of a Boissier and Simon photoelectric actimeter.
The mice are placed in groups of five in a box closed with a lid, through which two perpendicular light rays pass; the mice cut off these rays when they move.
These movements are measured by a counter, which is read after thirty minutes and one hour.

Data set [9] concerns exploration behavior of mice. The experiment in a line: Exploration behavior (automated hole-board). Format: in vivo. As to conditions: Mus musculus, ip, comparative test. An excerpt: Thirty minutes after the intraperitoneal administration of the derivatives according to the invention, each mouse is placed on an automated hole-board for five minutes and the number of holes explored is noted every minute.
(§1) A 50% effective dose can be calculated from the results obtained.

The test system of data set [10] is muscle-relaxing action in mice. The data set is described as follows: Muscle-relaxing action (traction test). Format: in vivo. As to conditions: Mus musculus, ip, comparative test.
Source text: D--Muscle-relaxing action (traction test)
This test assesses the presence or absence of redressments in a mouse brought up to a horizontal wire with its front paws.
The number of mice which are unable to grip the wire with one of their back paws within five seconds is noted.
as §1

Data set [11] relates to sleep induced by pentobarbital. The data set is described as follows: Interaction with pentobarbital. Format: in vivo. The settings on record: Mus musculus, ip, read-out: Interaction with pentobarbital ED50.
Source text: E--Interaction with pentobarbital
as §1

Setting [12] is: read-out: Peripheral analgesic activity (mouse) (ED50).
Where [13] appears, read: ip, i.p., first value under bronchospasm, read-out: Bronchospasm (guinea-pig) (ED50), i.p.
Setting [14] is: po, second value under bronchospasm, p.o. by position, read-out: Bronchospasm (guinea-pig) (ED50), second value.

Counter-ions that a name gives are not always drawn. Like-named read-outs stand apart in the source and are kept apart here.

Turning to `CCOC(=O)C=C1CCN(CCOC(c2ccccc2)c2ccccc2)CC1` [Example 2, ethyl 1-(benzhydryloxyethyl)piperidin-4-ylideneacetate], the 50% lethal dose (LD50) (commonly the dose expected to kill half of the subjects tested) in data set [1] (ip, read-out: LD50 (i.p.)) amounted to 300 mg/kg. For the same compound, the ED50 – broadly, the dose that gives a 50% effect, or the effect in half of the subjects – in data set [2] (setting [12]) was 1.9 mg/kg; in data set [4] (setting [13]) it was 0.65 mg/kg; in [4] (setting [14]), 0.21 mg/kg; in [5] it was 0.25 mg/kg. Besides, the “"In vitro" test (isolated ileum) (ED50)” value in data set [3] was greater than 10 µg.
Regarding `CCOC(=O)CC1CCN(CCOC(c2ccccc2)c2ccccc2)CC1` [Example 3, maleate of ethyl 1-(benzhydryloxyethyl)piperidino-4-acetate], the LD50 in data set [1] (ip, read-out: LD50 (i.p.)) was 160 mg/kg; in [1] (po, read-out: LD50 (p.o.)), 585 mg/kg. The “MLD (i.p.)” value in data set [6] came to 75 mg/kg. For the same compound, the 50% effective dose (ED50) in [2] (setting [12]) came to 1.9 mg/kg; in [4] (setting [13]), 0.097 mg/kg; in data set [4] (setting [14]) it was 0.223 mg/kg; in [5], 0.061 mg/kg; in data set [7], 0.829 mg/kg. Moreover, the “"In vitro" test (isolated ileum) (ED50)” value in [3] was 8.0 µg.
As to `CCOC(=O)C1CCN(CCOC(c2ccccc2)c2ccccc2)CC1` [Example 4, fumarate of 4-carbethoxy-1-benzhydryloxyethylpiperidine], in [1] (ip, read-out: LD50 (i.p.)), the LD50 came to 456 mg/kg. In addition, the “"In vitro" test (isolated ileum) (ED50)” value in data set [3] turned out to be 5 µg. In addition, the results for the ED50 in data set [4] (setting [13]), in data set [4] (setting [14]) and in data set [5] were 0.46 mg/kg, 0.49 mg/kg and 0.334 mg/kg, respectively.
On to `CC(C)(C)c1ccc(C(O)CCCN2CCC(C(O)(c3ccccc3)c3ccccc3)CC2)cc1` (stereo not shown) [Terfenadine], for which the “Motor activity, significant decrease at” value in data set [8] is 25 mg/kg. For the same compound, the ED50 amounted to 37 mg/kg in [9]; 31 mg/kg in [10]; 25 mg/kg in data set [11]; 3.1 mg/kg in data set [2] (mice, i.p., comparative test, read-out: Peripheral analgesic activity ED50).

Source of the values: patent US4983614A, “Benzhydryloxyethylpiperidine derivatives, process for their preparation and pharmaceutical compositions, in which they are present” (priority 1986, dated 1991).
